One test has as its system TH-stained dopaminergic neurons. The test can be described thus: MPTP Model of Parkinson's Disease. It is filed as in vivo. The conditions noted are these: MPTP-lesioned CD1 mice, 4 mg/kg s.c.
Chain of FKBP (P62942 whole entry): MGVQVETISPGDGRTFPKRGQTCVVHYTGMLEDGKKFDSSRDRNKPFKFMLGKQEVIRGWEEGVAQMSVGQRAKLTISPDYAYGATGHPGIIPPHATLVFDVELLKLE
As for `CCC(C)(C)C(=O)C(=O)N1CCCN1C(=O)CCCCc1ccccc1` [Compound 1, 3,3-dimethyl-N-[2-(5-phenylpentanoyl) -tetrahydro-1H-1-pyrazolyl]-1,2-pentanedione], the “% TH recov 4 mg/kg s.c.” value worked out at 14%.

The test is the same for the next values; noted with them: MPTP-lesioned CD1 mice, 10 mg/kg p.o.
As for `CCC(C)(C)C(=O)C(=O)N1CCCCN1C(=O)OCCCc1ccccc1` [Compound 14, 3-phenylpropyl 2-(3,3-dimethyl-2-oxopentanoyl)-perhydropyridazine-carboxylate], the “% TH recov 10 mg/kg p.o.” value is 3%.

The test is the same for the next values; noted with them: Mus musculus, Neuron, po; MPTP-lesioned CD1 mice, 10 mg/kg p.o.; read-out: % TH recov 10 mg/kg p.o.
Regarding `CCC(C)(C)C(=O)C(=O)N1CCCN1C(=O)CCc1ccccc1` [Compound 2, 3,3-dimethyl-N-[2-(3-phenylpropanoyl)tetra-hydro-1H-1-pyrazolyl]-1,2-pentanedione], the % recovery of TH-stained dopaminergic neurons at 10 mg/kg came to 10%.
Consider `CCC(C)(C)C(=O)C(=O)N1CCCN1C(=O)CCC#Cc1cccnc1` [Compound 3, 3,3-dimethyl-1-[2-(5-(3-pyridyl)pent-4-ynoyl)-pyrazolidinyl]-pentane-1,2-dione], for which the % recovery of TH-stained dopaminergic neurons at 10 mg/kg came out at 26%.
In the case of `CCC(C)(C)C(=O)C(=O)N1CCCN1C(=O)CCCc1ccccc1` [Compound 5, 3,3-dimethyl-1-[2-(4-phenylbutanoyl)-pyrazolidinyl]pentane-1,2-dione], the % recovery of TH-stained dopaminergic neurons at 10 mg/kg was determined as 4%.
`CCC(C)(C)C(=O)C(=O)N1CCCN1C(=O)CCCCCc1ccccc1` [Compound 6, 3,3-dimethyl-1-[2-(6-phenylhexanoyl)-pyrazolidinyl]pentane-1,2-dione]: the % recovery of TH-stained dopaminergic neurons at 10 mg/kg stood at 32%.
For `CCC(C)(C)C(=O)C(=O)N1CCCN1C(=O)CCCCc1cccnc1` [Compound 7, 3,3-dimethyl-1-[2-(5-(3-pyridyl)pentanoyl)-pyrazolidinyl]pentane-1,2-dione], the % recovery of TH-stained dopaminergic neurons at 10 mg/kg is 57%.
Take `CCC(C)(C)C(=O)C(=O)N1CCCCN1C(=O)CCCCCc1ccccc1` [Compound 12, 3,3-dimethyl-1-[2-(6-phenylhexanoyl)-perhydropyridazinyl]-pentane-1,2-dione]: the % recovery of TH-stained dopaminergic neurons at 10 mg/kg is 35%.
As for `CCC(C)(C)C(=O)C(=O)N1CCCCN1C(=O)CCCCCc1cccnc1` [Compound 13, 3,3-dimethyl-2-[2-(6-(3-pyridyl)hexanoyl)-perhydropyridazinyl]-pentane-1,2-dione], the % recovery of TH-stained dopaminergic neurons at 10 mg/kg was 18%.
On to `CCC(C)(C)C(=O)C(=O)N1CCCCN1C(=O)OCCCCc1ccccc1` [Compound 15, 4-phenylbutyl 2-(3,3-dimethyl-2-oxopentanoyl)perhydro-pyridazinecarboxylate], for which the % recovery of TH-stained dopaminergic neurons at 10 mg/kg was 21%.
`CCC(C)(C)C(=O)C(=O)N1CCCCN1C(=O)OCCCCCc1ccccc1` [Compound 16, 5-phenylpentyl 2-(3,3-dimethyl-2-oxopentanoyl)perhydro-pyridazinecarboxylate]: the % recovery of TH-stained dopaminergic neurons at 10 mg/kg is 49%.
As for `CCC(C)(C)C(=O)C(=O)N1CCCCN1C(=O)OCCCCc1cccnc1` [Compound 17, 4-(3-pyridyl)butyl 2-(3,3-dimethyl-2-oxopentanoyl)-perhydropyridazine-carboxylate], the % recovery of TH-stained dopaminergic neurons at 10 mg/kg was found to be 38%.
As for `CCC(C)(C)C(=O)C(=O)N1CCCCN1C(=O)CCCCc1ccccc1` [Compound 18, 3,3-dimethyl-1-[2-({5-phenyl)pentanoyl)-perhydropyridazinyl]-pentane-1,2-dione], the % recovery of TH-stained dopaminergic neurons at 10 mg/kg stood at 18%.
As for `O=C(OCCCCc1ccccc1)N1CCCCN1S(=O)(=O)Cc1ccccc1` [Compound 106, 4-phenylbutyl 2-[benzylsunfonyl]-perhydropyridazine-carboxylate], the % recovery of TH-stained dopaminergic neurons at 10 mg/kg came out at 23%.
For `O=C(NC1CCCCC1)N1CCCCN1C(=O)OCCCCc1ccccc1` [Compound 154, 4-phenylbutyl 2-(N-cyclohexylcarbamoyl)-perhydropyridazine-carboxylate], the % recovery of TH-stained dopaminergic neurons at 10 mg/kg amounted to 46%.

The next test concerns the target FKBP (Homo sapiens, UniProt P62942). The experiment in a line: Ki Test: inhibition of peptidyl-prolyl isomerase (rotamase) activity, chymotrypsin-coupled assay. It is filed as biochemical. The conditions noted are these: apparent Ki. The source says: Inhibition of the peptidyl-prolyl isomerase (rotamase) activity of the inventive compounds can be evaluated by known methods described in the literature (Harding et al., Nature, 1989, 341:758-760; Holt et al. J. Am. Chem. Soc., 115:9923-9938). These values are obtained as apparent Ki's and are presented for representative compounds in Table V. The cis-trans isomerization of an alanine-proline bond in a model substrate, N-succinyl-Ala-Ala-Pro-Phe-p-nitroanilide, is monitored spectrophotometrically in a chymotrypsin-coupled assay, which releases para-nitroanilide from the trans form of the substrate. The inhibition of this reaction caused by the addition of different concentrations of inhibitor is determined, and the data is analyzed as a change in first-order rate constant as a function of inhibitor concentration to yield the apparent Ki values.
In a plastic cuvette are added […] of ice cold assay buffer (25 mM HEPES, pH 7.8, 100 mM NaCl), […] of FKBP (2.5 mM in 10 mM Tris-Cl pH 7.5, 100 mM NaCl, 1 mM dithiothreitol), […] of chymotrypsin (50 mg/ml in 1 mM HCl) and […] of test compound at various concentrations in dimethyl sulfoxide. […]
The absorbance at 390 nm versus time is monitored for 90 seconds using a spectrophotometer and the rate constants are determined from the absorbance versus time data files.
`CCC(C)(C)C(=O)C(=O)N1CCCN1C(=O)CCCCc1ccccc1` [Compound 1, 3,3-dimethyl-N-[2-(5-phenylpentanoyl) -tetrahydro-1H-1-pyrazolyl]-1,2-pentanedione]: the Ki was determined as 1170 nM.
For the compound `CCC(C)(C)C(=O)C(=O)N1CCCCN1C(=O)CCCCCc1cccnc1` [Compound 13, 3,3-dimethyl-2-[2-(6-(3-pyridyl)hexanoyl)-perhydropyridazinyl]-pentane-1,2-dione], the Ki was found to be 3210 nM.

The values above are taken from patent US7253169B2, “Aza compounds, pharmaceutical compositions and methods of use” (Gliamed, Inc., priority 1999, dated 2007).
